Test results taken from PubChem BioAssay AID602211 (Sanford-Burnham Center for Chemical Genomics, 2012).
Activity calls are given as the source filed them.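 The calls were made as follows: active = mean IC50 at or below 10 µM; inactive = the rest.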

Test system: H9c2 cardiomyocytes, H2O2 protection, ATPLite viability, 2 h
Assay: H2O2-induced H9c2 cell death suppression – ATPLite luminescence, set 2, dose response (AID 602211);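 also: potency is for protection so actives keep ATP signal up against peroxide killing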

Row | SMILES | IC50
1 | COc1ccc(OC)c(/C=N/Nc2nncn2/N=C/c2cc(OC)ccc2OC)c1 | 6.17 µM
2 | CCOC(=O)c1cccc(Nc2nc(-c3cccnc3)nc3ccccc23)c1 | > 79 µM (inactive)
3 | CC(C)CC(C(=O)NC1CCCCC1)N(Cc1cccs1)C(=O)c1snc(C(N)=O)c1N (configuration not stated) | 10.2 µM (inactive)
4 | Cc1ccc2cc3c(NC(=O)c4cccnc4)nn(C)c3nc2c1 | 15.9 µM (inactive)
5 | COC(=O)c1ccccc1NC(=O)c1ccc2nccnc2c1 | 50.6 µM (inactive)
6 | CC(C)CCN(C(=O)CNC(=O)c1ccco1)C(C(=O)NC1CCCCC1)c1ccco1 (configuration not stated) | 13.4 µM (inactive)
7 | COc1cc(NC(=O)c2csc(-c3ccncc3)n2)cc(C(=O)Nc2cccc(C(F)(F)F)c2)c1 | 2.7 µM
8 | CC(=O)Nc1ccc(-c2csc(NC(=O)Nc3ccccc3)n2)cc1 | 40.6 µM (inactive)
9 | COc1cccc(/C=N/NC(=O)c2oc3nc(-c4ccccc4)cc(-c4ccco4)c3c2N)c1 | 5.87 µM
10 | COc1cc(C(=O)N/N=C/c2ccc(OC(=O)c3cccc(C)c3)c(OC)c2)ccc1O | 3.16 µM
11 | CN1CCc2nc3ccccc3c(C(=O)OCC(=O)N(CCC#N)c3ccccc3)c2C1 | 22.7 µM (inactive)
12 | C[C@H](CO)N1C[C@H](C)[C@@H](CN(C)C(=O)Nc2ccc3c(c2)OCO3)Oc2c(NC(=O)Nc3ccc(C(F)(F)F)cc3)cccc2C1=O | 40.3 µM (inactive)
13 | CCN(C[C@H]1N[C@@](Cc2ccccc2)(C(=O)OC)[C@H]2C(=O)N(C)C(=O)[C@@H]12)S(=O)(=O)c1ccc(OC)cc1 | 21.1 µM (inactive)
14 | COc1ccc(-c2cc(NC(C)=O)c3ncc(-c4cccc(C(C)=O)c4)n3c2)cc1OC | 7.18 µM
15 | Cc1ccc(S(=O)(=O)N2CCN(C(=O)c3cc(=O)[nH]c4ccccc34)CC2)c(C)c1 | 2.24 µM
16 | CCOC(=O)c1ccc(NC(=O)c2nc[nH]c2C(=O)NCCCCCNC(=O)OC(C)(C)C)cc1 | 4.43 µM
17 | COCCN1Cc2cccc(C(=O)Nc3cccc(-c4nc5ccccc5[nH]4)c3)c2C1=O | 3.91 µM
18 | CCOc1ccccc1NC(=O)c1oc2ccccc2c1NC(=O)C1CCCO1 (configuration not stated) | 4.13 µM
19 | CCN(CC)C(=O)c1ccc(-c2nnc(Nc3ccc(O)cc3)c3ccccc23)cc1 | 17.6 µM (inactive)

Row | SMILES | IC50
20 | CC(=O)Nc1cccc(NC(=O)c2cc(-c3cccnc3)nc3ccc(Br)cc23)c1 | 1.3 µM
21 | CCC(=O)Nc1cccc(-c2nnc(-c3cccc(NC(=O)CC)c3)o2)c1 | 4.1 µM
22 | COc1cc(/C=N\NC(=O)c2cccnc2)ccc1OC(=O)c1ccccc1Cl | 30 µM (inactive)
23 | CC/C(C)=N\N=C\c1c(O)n(CC)c2cc(C3=NNC(=O)CC3)ccc12 | 16.6 µM (inactive)
24 | COc1ccc(Nc2nc(C(=O)N3CCc4cc(OC)c(OC)cc4C3)cs2)cc1 | 4.29 µM
25 | O=C(CN(c1ccc2c(c1)OCCO2)S(=O)(=O)c1ccccc1)Nc1ccc2c(c1)OCO2 | 4.32 µM
26 | COc1cc(C(=O)Nc2ccc(NC(=O)c3cccc(Cl)c3)nc2)cc(OC)c1OC | 2.96 µM
27 | COC(=O)c1ccc(OCC(=O)Nc2ccccc2C(=O)NC2CC2)cc1 | 22.6 µM (inactive)
28 | COc1cc(-c2cc(C(=O)Nc3cccc(C(C)=O)c3)c3ccccc3n2)cc(OC)c1OC | 3.59 µM
29 | C#CCOc1nc(Nc2cccc([N+](=O)[O-])c2)nc(OCC#C)n1 | > 79 µM (inactive)
30 | O=C(CN1C(=O)C2C3C=CC(C3)C2C1=O)Nc1nc(-c2ccccn2)cs1 (configuration not stated) | 21.1 µM (inactive)
31 | CNC(=O)c1ccc(-c2sc3nc(N4CCOCC4)c4c(c3c2N)CCCC4)o1 | 11.6 µM (inactive)
32 | COC(=O)c1cc2c(-c3ccccc3)cc3ccccn3c-2c1C(=O)OC | 6.44 µM
33 | COc1ccc(-c2oc(=O)c3cc(OC)c(OC)cc3c2C#CCCO)cc1 | 6.71 µM
34 | Cn1c(C(=O)NCCc2ccsc2)cc2c(=O)n(C)c3ccccc3c21 | 4.74 µM
35 | COc1ccc(-c2ccc3[nH]c4c(c3c2)CCN2C[C@H]3[C@H](C)ON(C)[C@H]3C[C@@H]42)cc1 | > 79 µM (inactive)
36 | CCC(Oc1ccccc1)C(=O)Nc1ccccc1C(=O)N1CCCCC1 (configuration not stated) | 36.2 µM (inactive)
37 | Cc1nc(NC(=O)c2cc3c(C)nn(-c4ccccc4)c3s2)sc1C(=O)Nc1ccccc1 | 2.7 µM
